Molecules are shown by their SMILES.

The target of series [1] is T1, Receptor-type tyrosine-protein kinase FLT3 (Homo sapiens, UniProt P36888).
T1 sequence (P36888 whole entry): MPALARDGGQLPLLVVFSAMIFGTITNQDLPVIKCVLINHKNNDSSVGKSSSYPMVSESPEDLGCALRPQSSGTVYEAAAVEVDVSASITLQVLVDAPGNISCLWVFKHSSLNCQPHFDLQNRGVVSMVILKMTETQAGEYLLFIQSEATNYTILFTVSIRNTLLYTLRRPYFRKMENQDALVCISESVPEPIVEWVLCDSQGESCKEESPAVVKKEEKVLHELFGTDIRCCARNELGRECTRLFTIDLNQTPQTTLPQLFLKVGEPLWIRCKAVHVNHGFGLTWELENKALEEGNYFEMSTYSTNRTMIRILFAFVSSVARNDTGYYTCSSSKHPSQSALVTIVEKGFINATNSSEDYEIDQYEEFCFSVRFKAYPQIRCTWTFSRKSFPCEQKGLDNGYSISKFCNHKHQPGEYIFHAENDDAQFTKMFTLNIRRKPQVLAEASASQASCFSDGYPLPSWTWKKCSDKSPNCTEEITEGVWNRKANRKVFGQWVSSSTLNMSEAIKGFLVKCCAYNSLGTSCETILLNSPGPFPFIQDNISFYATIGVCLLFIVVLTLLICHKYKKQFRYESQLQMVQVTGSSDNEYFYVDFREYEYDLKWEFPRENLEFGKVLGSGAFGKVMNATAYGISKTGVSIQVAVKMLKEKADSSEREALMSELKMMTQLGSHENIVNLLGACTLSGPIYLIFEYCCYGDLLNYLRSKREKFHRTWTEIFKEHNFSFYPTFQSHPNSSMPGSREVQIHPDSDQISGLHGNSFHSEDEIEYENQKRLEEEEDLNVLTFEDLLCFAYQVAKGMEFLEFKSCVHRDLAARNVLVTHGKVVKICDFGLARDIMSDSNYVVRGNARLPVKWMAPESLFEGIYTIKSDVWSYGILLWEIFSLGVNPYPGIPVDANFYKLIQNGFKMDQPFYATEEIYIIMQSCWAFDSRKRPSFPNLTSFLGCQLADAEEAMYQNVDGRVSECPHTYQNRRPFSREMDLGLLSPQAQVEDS
The experiment in a line: Inhibition of FLAG-tagged FLT3 (unknown origin) transfected in Cos-7 cells assessed as phosphorylation level incubated for 1 hr by ELISA. Type of series: cell-based. (In general: In an ELISA, binding on a coated surface is turned into a signal by an enzyme label.)

For series [2], the target named is T2, Tyrosine-protein kinase receptor UFO (Homo sapiens, UniProt P30530).
T2 sequence (P30530 whole entry): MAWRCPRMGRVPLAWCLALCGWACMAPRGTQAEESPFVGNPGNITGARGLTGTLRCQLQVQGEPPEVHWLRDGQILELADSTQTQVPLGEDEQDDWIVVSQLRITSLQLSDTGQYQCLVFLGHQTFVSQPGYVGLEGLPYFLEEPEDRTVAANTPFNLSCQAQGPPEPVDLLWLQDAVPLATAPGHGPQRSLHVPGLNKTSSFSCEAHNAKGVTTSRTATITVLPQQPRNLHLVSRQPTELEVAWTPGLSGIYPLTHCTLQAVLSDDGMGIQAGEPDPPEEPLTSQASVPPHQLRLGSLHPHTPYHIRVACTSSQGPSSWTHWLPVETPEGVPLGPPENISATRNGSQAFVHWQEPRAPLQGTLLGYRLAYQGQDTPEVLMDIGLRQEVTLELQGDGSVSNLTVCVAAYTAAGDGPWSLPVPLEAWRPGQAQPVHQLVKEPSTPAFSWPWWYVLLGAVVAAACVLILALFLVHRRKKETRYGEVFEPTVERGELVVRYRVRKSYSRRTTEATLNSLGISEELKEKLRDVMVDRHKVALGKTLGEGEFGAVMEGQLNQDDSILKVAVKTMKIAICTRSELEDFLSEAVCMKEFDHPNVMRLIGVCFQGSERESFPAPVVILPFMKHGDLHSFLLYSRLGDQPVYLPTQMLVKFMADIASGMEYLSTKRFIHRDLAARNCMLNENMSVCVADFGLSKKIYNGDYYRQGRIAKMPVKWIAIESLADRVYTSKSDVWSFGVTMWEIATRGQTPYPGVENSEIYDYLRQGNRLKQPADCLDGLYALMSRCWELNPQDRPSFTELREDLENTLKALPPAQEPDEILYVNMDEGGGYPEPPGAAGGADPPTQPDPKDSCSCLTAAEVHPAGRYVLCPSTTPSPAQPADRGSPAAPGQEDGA
As to the kind of experiment: Inhibition of FLAG-tagged AXL (unknown origin) transfected in Cos-7 cells assessed as phosphorylation level incubated for 1 hr by ELISA. Type of series: cell-based.

The nature of series [3]: Lipophilicity, log D of the compound at pH 7.4. The following applies: buffer. The class given is physicochemical.
Series [4] can be described thus: Induction efferocytosis in human PBMC assessed as CD14-positive monocytes.
In series [5] the target is T3, Tyrosine-protein kinase receptor TYRO3 (Homo sapiens, UniProt Q06418).
T3 sequence (Q06418 whole entry): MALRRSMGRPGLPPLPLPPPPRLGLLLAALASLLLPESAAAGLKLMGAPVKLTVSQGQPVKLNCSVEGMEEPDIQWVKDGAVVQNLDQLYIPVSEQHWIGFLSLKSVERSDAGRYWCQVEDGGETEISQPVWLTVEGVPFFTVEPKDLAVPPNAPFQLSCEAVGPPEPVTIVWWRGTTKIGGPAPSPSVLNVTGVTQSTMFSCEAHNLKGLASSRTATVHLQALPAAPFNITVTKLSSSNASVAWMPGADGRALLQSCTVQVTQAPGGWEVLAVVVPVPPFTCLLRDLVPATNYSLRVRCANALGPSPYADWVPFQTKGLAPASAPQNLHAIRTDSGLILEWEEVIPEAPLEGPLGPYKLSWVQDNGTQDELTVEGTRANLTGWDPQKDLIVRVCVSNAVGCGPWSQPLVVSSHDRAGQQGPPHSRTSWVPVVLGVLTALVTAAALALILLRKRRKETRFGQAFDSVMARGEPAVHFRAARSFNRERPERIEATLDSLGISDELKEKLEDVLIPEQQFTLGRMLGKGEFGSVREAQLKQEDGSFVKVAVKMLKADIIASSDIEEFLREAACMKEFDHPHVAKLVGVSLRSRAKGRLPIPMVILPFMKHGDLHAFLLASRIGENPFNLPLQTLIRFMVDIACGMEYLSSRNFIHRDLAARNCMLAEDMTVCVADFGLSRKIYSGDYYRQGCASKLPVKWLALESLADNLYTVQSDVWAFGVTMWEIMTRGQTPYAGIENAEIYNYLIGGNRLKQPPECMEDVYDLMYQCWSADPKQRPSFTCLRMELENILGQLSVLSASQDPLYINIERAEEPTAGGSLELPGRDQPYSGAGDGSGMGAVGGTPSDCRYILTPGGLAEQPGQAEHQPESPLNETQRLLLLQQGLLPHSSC
As to the kind of experiment: Inhibition of FLAG-tagged Tyro3 (unknown origin) transfected in Cos-7 cells assessed as phosphorylation level incubated for 1 hr by ELISA. The class given is cell-based.

On to `Cc1cc(-c2c(C)nn(C)c2C)cnc1-c1nnc(N(C)Cc2ccc3ncc(-c4ccc(CN(C)C)cc4)n3c2)o1`, for which the concentration for half-maximal inhibition (IC50) – broadly, the concentration at which inhibition is half-maximal – was above 31.6 µM in series [1], 0.1 µM in series [2] and above 31.6 µM in series [5]. The logD (commonly the decadic logarithm of the distribution of all forms, ionised or not, between an organic phase and buffer at a given pH) in series [3] was found to be 2.9. Further, the pIC50 (usually the IC50 on a negative log10 scale, so that one unit is a factor of ten) in series [4] amounted to 7.6.
For the compound `Cc1cc(-c2c(C)nn(C)c2C)ccc1-c1nnc(N(C)Cc2ccc3nccn3c2)o1`, the IC50 in series [1] is 20 µM; in series [2], 0.398 µM; in series [5], above 31.6 µM. The compound also came in with a pH-dependent lipophilicity (logD) in series [3] of 3.7. The negative-log IC50 (pIC50) in series [4] is listed as 6.8.
For the compound `Cc1cc(-c2c(C)nn(C)c2C)cnc1-c1nnc(N(C)Cc2ccc3nccn3c2)o1`, the IC50 was above 31.6 µM in series [1], 6.31 µM in series [2] and above 31.6 µM in series [5]. Further, the pH-dependent lipophilicity (logD) in series [3] is 2.8. In series [4], the pIC50 stood at 6.

The values above are taken from ChEMBL document CHEMBL4825753 (J Med Chem, 2021).
